Assays:
[1] = system: T47D; test: Growth inhibition of human T47D cells at 10^-5 M after 48 hrs by SRB assay; type: functional; design: Activity: scale not given: the % may be the effect or the level left; conditions: for inhibition of growth at 10 µM: Homo sapiens, T47D, 48 h, read-out: GI
[2] = system: NCI-H522; test: Growth inhibition of human NCI-H522 cells at 10^-5 M after 48 hrs by SRB assay; type: functional; conditions: NCI-H522, 48 h, read-out: GI
[3] = Growth inhibition of human PC3 cells at 10^-5 M after 48 hrs by SRB assay; type: functional; conditions: PC-3, 48 h, read-out: GI
[4] = Growth inhibition of human MOLT4 cells at 10^-5 M after 48 hrs by SRB assay; type: functional; conditions: MOLT-4, 48 h, read-out: GI
[5] = Growth inhibition of human HOP92 cells at 10^-5 M after 48 hrs by SRB assay; type: functional; conditions: HOP-92, 48 h, read-out: GI
[6] = Growth inhibition of human HCT15 cells at 10^-5 M after 48 hrs by SRB assay; type: functional; conditions: HCT-15, 48 h, read-out: GI
[7] = system: A498; test: Growth inhibition of human A498 cells at 10^-5 M after 48 hrs by SRB assay; type: functional; conditions: A498, 48 h, read-out: GI
[8] = system: SNB-75; test: Growth inhibition of human SNB75 cells at 10^-5 M after 48 hrs by SRB assay; type: functional; conditions: SNB-75, 48 h, read-out: GI
[9] = system: Malme-3M; test: Growth inhibition of human MALME-3M cells at 10^-5 M after 48 hrs by SRB assay; type: functional; conditions: read-out: GI
[10] = Growth inhibition of human HCT116 cells at 10^-5 M after 48 hrs by SRB assay; type: functional; conditions: HCT-116, 48 h, read-out: GI
[11] = Growth inhibition of human SF295 cells at 10^-5 M after 48 hrs by SRB assay; type: functional; conditions: SF-295, 48 h, read-out: GI
[12] = system: MDA-MB-435; test: Growth inhibition of human MDA-MB-435 cells at 10^-5 M after 48 hrs by SRB assay; type: functional; conditions: MDA-MB-435, 48 h, read-out: GI
[13] = system: CAKI-1; test: Growth inhibition of human Caki1 cells at 10^-5 M after 48 hrs by SRB assay; type: functional; conditions: CAKI-1, 48 h, read-out: GI
[14] = system: SNB-75; test: Cytotoxicity against human SNB75 cells assessed as cell growth at 10^-5 M after 48 hrs by SRB assay; type: functional; conditions: SNB-75, 48 h, read-out: Activity
[15] = species on record: Ovis aries; test: Inhibition of sheep brain tubulin polymerization at 100 uM by fluorescence assay
[16] = system: MCF7; test: Growth inhibition of human MCF7 cells at 10^-5 M after 48 hrs by SRB assay; type: functional; conditions: MCF7, 48 h, read-out: GI
[17] = system: HL-60(TB); test: Growth inhibition of human HL-60(TB) cells at 10^-5 M after 48 hrs by SRB assay; type: functional; conditions: HL-60, 48 h, read-out: GI
[18] = system: MOLT-4; test: Cytotoxicity against human MOLT4 cells assessed as cell growth at 10^-5 M after 48 hrs by SRB assay; type: functional; conditions: MOLT-4, 48 h, read-out: Activity
[19] = Growth inhibition of human EKVX cells at 10^-5 M after 48 hrs by SRB assay; type: functional; conditions: read-out: GI
[20] = system: SR; test: Growth inhibition of human SR cells after 48 hrs by SRB assay; type: functional
[21] = system: NCI-H522; test: Growth inhibition of human NCI-H522 cells after 48 hrs by SRB assay; type: functional; conditions: NCI-H522, 48 h
[22] = system: A498; test: Growth inhibition of human A498 cells after 48 hrs by SRB assay; type: functional; conditions: A498, 48 h
[23] = Growth inhibition of human PC3 cells after 48 hrs by SRB assay; type: functional; conditions: PC-3, 48 h
[24] = system: NCI-H522; test: Cytotoxicity against human NCI-H522 cells assessed as cell growth at 10^-5 M after 48 hrs by SRB assay; type: functional; conditions: NCI-H522, 48 h, read-out: Activity
[25] = Cytotoxicity against human HCT116 cells assessed as cell growth at 10^-5 M after 48 hrs by SRB assay; type: functional; conditions: HCT-116, 48 h, read-out: Activity
[26] = system: MDA-MB-468; test: Growth inhibition of human MDA-MB-468 cells after 48 hrs by SRB assay; type: functional; conditions: MDA-MB-468, 48 h
[27] = Growth inhibition of human COLO205 cells after 48 hrs by SRB assay; type: functional; conditions: COLO 205, 48 h
[28] = Growth inhibition of human OVCAR3 cells after 48 hrs by SRB assay; type: functional; conditions: OVCAR-3, 48 h
[29] = system: HL-60(TB); test: Growth inhibition of human HL-60(TB) cells after 48 hrs by SRB assay; type: functional; conditions: HL-60, 48 h
[30] = system: KM12; test: Growth inhibition of human KM12 cells after 48 hrs by SRB assay; type: functional; conditions: KM12, 48 h
[31] = system: SK-MEL-5; test: Growth inhibition of human SK-MEL-5 cells after 48 hrs by SRB assay; type: functional; conditions: SK-MEL-5, 48 h
[32] = system: HT-29; test: Growth inhibition of human HT-29 cells after 48 hrs by SRB assay; type: functional; conditions: HT-29, 48 h
[33] = system: SNB-75; test: Growth inhibition of human SNB75 cells after 48 hrs by SRB assay; type: functional; conditions: SNB-75, 48 h
[34] = system: NCI/ADR-RES; test: Growth inhibition of human NCI/ADR-RES cells after 48 hrs by SRB assay; type: functional
[35] = system: MDA-MB-435; test: Growth inhibition of human MDA-MB-435 cells after 48 hrs by SRB assay; type: functional; conditions: MDA-MB-435, 48 h
[36] = Inhibition of sheep brain tubulin polymerization by fluorescence assay; design: species or system Ovis aries
[37] = system: MDA-MB-435; test: Cytotoxicity against human MDA-MB-435 cells assessed as cell growth at 10^-5 M after 48 hrs by SRB assay; type: functional; conditions: MDA-MB-435, 48 h, read-out: Activity
[38] = system: MCF7; test: Growth inhibition of human MCF7 cells after 48 hrs by SRB assay; type: functional; conditions: MCF7, 48 h
[39] = system: K562; test: Growth inhibition of human K562 cells after 48 hrs by SRB assay; type: functional; conditions: K562, 48 h
[40] = system: A498; test: Cytotoxicity against human A498 cells assessed as cell growth at 10^-5 M after 48 hrs by SRB assay; type: functional; conditions: A498, 48 h, read-out: Activity
[41] = system: HL-60(TB); test: Cytotoxicity against human HL-60(TB) cells assessed as cell growth at 10^-5 M after 48 hrs by SRB assay; type: functional; conditions: HL-60, 48 h, read-out: Activity
[42] = system: SF-295; test: Cytotoxicity against human SF295 cells assessed as cell growth at 10^-5 M after 48 hrs by SRB assay; type: functional; conditions: SF-295, 48 h, read-out: Activity

| SMILES | inhibition of growth at 10 µM [1] | inhibition of growth at 10 µM [2] | inhibition of growth at 10 µM [3] | inhibition of growth at 10 µM [4] | inhibition of growth at 10 µM [5] | inhibition of growth at 10 µM [6] | inhibition of growth at 10 µM [7] | inhibition of growth at 10 µM [8] | inhibition of growth at 10 µM [9] | inhibition of growth at 10 µM [10] | inhibition of growth at 10 µM [11] | inhibition of growth at 10 µM [12] | inhibition of growth at 10 µM [13] | inhibition [15] | inhibition of growth at 10 µM [16] | inhibition of growth at 10 µM [17] | inhibition of growth at 10 µM [19] | GI50 [20] | GI50 [21] | GI50 [22] | further results |
| --- | --- | --- | --- | --- | --- | --- | --- | --- | --- | --- | --- | --- | --- | --- | --- | --- | --- | --- | --- | --- | --- |
| COc1ccc(C(=O)c2cc(C#N)c3c(C)cc(C)cn23)cc1 | 60% | 58% | 38% | 1% | 43% | 27% | 53% | 100% | 35% | 80% | 30% | 27% | 28% | 27% | 46% | 0% | – | – | – | – | growth at 10 µM [14]: -4% |
| CCOC(=O)c1cc(C(=O)c2ccc(OC)c(OC)c2)n2ccc(OC)cc12 | 4% | 0% | 12% | 100% | – | 7% | 15% | 0% | 12% | 2% | 3% | 2% | 3% | 51% | 8% | – | 0% | – | – | – | growth at 10 µM [18]: -53% |
| CCOC(=O)c1cc(C(=O)c2cc(OC)c(OC)c(OC)c2)n2ccc(C)cc12 | – | 100% | 79% | 50% | 88% | – | – | 82% | 74% | 100% | 85% | 100% | 66% | 72% | 88% | 92% | 50% | 310 nM | 585 nM | 272 nM | Activity [1]: 83%; GI50 [23]: 976 nM; growth at 10 µM [24]: -9%; growth at 10 µM [25]: -58%; GI50 [26]: 410 nM; GI50 [27]: 650 nM; GI50 [28]: 343 nM; GI50 [29]: 630 nM; GI50 [30]: 497 nM; GI50 [31]: 411 nM; GI50 [32]: 393 nM; GI50 [33]: 324 nM; GI50 [34]: 411 nM; GI50 [35]: 234 nM; IC50 [36]: 28100 nM; growth at 10 µM [37]: -17%; GI50 [38]: 339 nM |
| CCOC(=O)c1cc(C(=O)c2cc(OC)c(OC)c(OC)c2)n2cccc(C#N)c12 | 60% | 100% | 68% | 72% | 89% | 66% | 100% | 82% | 44% | 79% | 81% | 100% | 74% | 69% | 71% | 100% | 50% | 63 nM | 142 nM | 201 nM | GI50 [23]: 230 nM; growth at 10 µM [24]: -10%; GI50 [26]: 332 nM; GI50 [27]: 171 nM; GI50 [28]: 180 nM; GI50 [29]: 220 nM; GI50 [30]: 190 nM; GI50 [31]: 94 nM; GI50 [32]: 236 nM; GI50 [33]: 164 nM; GI50 [34]: 158 nM; GI50 [35]: 30 nM; GI50 [39]: 222 nM; IC50 [36]: 12000 nM; growth at 10 µM [40]: -13%; growth at 10 µM [37]: -29%; growth at 10 µM [41]: -14%; GI50 [38]: 252 nM |
| CCOC(=O)c1cc(C(=O)c2cc(OC)c(OC)c(OC)c2)n2c(C)cccc12 | 63% | 100% | 77% | 96% | 26% | 78% | 100% | 88% | 63% | 91% | 100% | 100% | 63% | 83% | 86% | 100% | 57% | 33 nM | 66 nM | 52 nM | GI50 [23]: 122 nM; growth at 10 µM [24]: -32%; GI50 [26]: 111 nM; GI50 [27]: 108 nM; GI50 [28]: 40 nM; GI50 [29]: 34 nM; GI50 [30]: 60 nM; GI50 [31]: 61 nM; GI50 [32]: 40 nM; GI50 [33]: 121 nM; GI50 [34]: 65 nM; GI50 [35]: 30 nM; GI50 [39]: 53 nM; IC50 [36]: 8020 nM; growth at 10 µM [40]: -3%; growth at 10 µM [37]: -48%; growth at 10 µM [41]: -42%; growth at 10 µM [42]: -32%; GI50 [38]: 56 nM |

Reference: ChEMBL document CHEMBL3352214, “Studies on indolizines. Evaluation of their biological properties as microtubule-interacting agents and as melanoma targeting compounds” (Eur J Med Chem, 2015)
